What all share (type): functional
In one assay the test system is Aspergillus niger. In words: Antifungal activity against Aspergillus niger.
Another assay concerns Bacillus subtilis. In words: Antibacterial activity against Bacillus subtilis.
The subject of a further assay is Micrococcus luteus. As to the kind of experiment: Antibacterial activity against Micrococcus luteus.
The next assay has as its system Staphylococcus aureus. As to the kind of experiment: Antibacterial activity against Staphylococcus aureus.

The values that follow come from ChEMBL document CHEMBL1152319, “Bromopyrrole alkaloids from marine sponges of the genus Agelas” (2009).

SMILES strings stand for the structures. Values after ≈ are worked out from the molar mass of the structure shown.

For `O=C1NC(=O)/C(=C/[C@@H](O)CNC(=O)c2cc(Br)c(Br)[nH]2)N1` [MUKANADIN F], in the assay on Aspergillus niger, the lowest concentration to inhibit growth (MIC) was 16.7 µg/mL (≈ 39.6 µM).

With `N=C1N[C@H]2N3C(=N)N[C@@H](O)[C@@]34[C@H]([C@H](CNC(=O)c3cc(Br)c[nH]3)[C@@H](CNC(=O)c3cc(Br)c(Br)[nH]3)[C@@H]4Cl)[C@@]2(O)N1` [NAGELAMIDE O], the MIC against Bacillus subtilis, against Micrococcus luteus and in the assay on Staphylococcus aureus was 33.3 µg/mL (≈ 43.4 µM) throughout.
